Measurements taken from US20130237485A1, “Methods and Agents for Enhancing Wound Healing” (UNIVERSITY OF SOUTHERN CALIFORNIA, priority 2010, published 2013).

Assays:
[1] = test system: EB5K and DG16 keratinocytes; assay: Colloidal gold salt migration assay using collagen I as a matrix; assay type: cell-based; settings: G418 8 μg/mL or gentamicin 200 μg/mL for 48 h; compared with normal human keratinocytes (IKC); FIG. 5
Protocol: In FIG. 5A, keratinocytes were either untreated or treated with G418 (8 μg/mL) or gentamicin (200 μg/mL) for 48 h and then subjected to colloidal gold salt migration assay using collagen I as a matrix. Representative fields were photographed at 40× under dark field optics. In FIG. 5B, migration index expresses the percentage of the total field area consumed by the migration tracks. Error bars, SD of three different experiments.

RDEB keratinocytes = assay: Immunoblot (anti-NC1 antibody) for full-length C7 in RDEB keratinocytes treated with aminoglycosides; assay type: cell-based, human; settings: for read-through / full-length C7 production: 48 h, G418 8 μg/mL, gentamicin 200 μg/mL, paromomycin 200 μg/mL, amikacin 1 mg/mL, PTC 124 20 μg/mL, EB5K and DG16 keratinocytes, FIG. 1; for sustained C7 production: G418 8 μg/mL or gentamicin 200 μg/mL, lysed at 3, 5, or 8 days following treatment, FIG. 3; for dose dependence of full-length C7 production: varying concentrations, EB5K and DG16 lines, FIG. 2
Protocol: RDEB keratinocytes were treated for 48 h with either G418 (8 μg/mL), gentamicin (200 μg/mL), paromomcyin (200 μg/mL), amikacin (1 mg/mL), or PTC 124 (20 μg/mL). Cells were subsequently lysed and subjected to immunoblot analysis with anti-NC1 antibody or anti-β-tubulin antibody (loading control).
RDEB keratinocytes were treated with varying concentrations of G418 and Gentamicin. Cells were lysed and subjected to immunoblot analysis with an anti-NC1 or anti-β-tubulin antibody (loading control).
EB5K and D016 keratinocytes were treated with G418 (8 μg/mL) or gentamicin (200 μg/mL). Cells were lysed at 3, 5, or 8 days following treatment and subjected to immunoblot analysis with an anti-NC1 or anti-β-tubulin antibody.

[2] = test system: Human epithelial (293 cells) transfected with nonsense mutation constructs; assay: Immunoblot (anti-NC1 antibody) of 293 cells transfected with COL7A1 nonsense mutation constructs; assay type: cell-based; settings: 293 cells with mutant constructs; for PTC read-through and full-length C7 production: G418 8 μg/mL or gentamicin 200 μg/mL for 48 h, FIG. 7
Protocol: For experimentation with cells containing different nonsense mutation in the COL7A1 gene, we used a C7 expression vector to introduce 30 nonsense mutations associated with RDEB via site-directed mutagenesis.
Human epithelial (293 cells) transfected with nonsense mutation constructs were treated with (FIG. 7A) G418 (8 μg/mL) and (FIG. 7B) gentamicin (200 μg/mL) for 48 h, lysed, and subjected to immunoblot analysis with an anti-NC1 antibody or anti-β-tubulin antibody (loading control).
In FIG. 8B, 293 cells transfected with the indicated mutant constructs were either untreated or treated with G418 (8 μg/mL) for 48 h, lysed and subjected to immunoblot analysis using an anti-NC1 antibody or anti-β-tubulin antibody (loading control).

[3] = test system: DG16 and EB5K keratinocytes; assay: Immunofluorescence staining for C7 with polyclonal anti-NC1 antibody; assay type: cell-based, human; settings: G418 8 μg/mL or gentamicin 200 μg/mL, FIG. 4
From the text: Normal human keratinocytes (IKC) were stained in parallel. […] In contrast, untreated parent keratinocytes entirely lacked C7expression.

Molecule	keratinocyte hypermotility (migration index) [1]	read-through / full-length C7 production (RDEB keratinocytes)	sustained C7 production (RDEB keratinocytes)	dose dependence of full-length C7 production (RDEB keratinocytes)	PTC read-through and full-length C7 production [2]	C7 staining (immunofluorescence) [3]	levels of truncated and full-length C7 production compared to untreated cells ([2]; G418 8 μg/mL for 48 h, FIG. 8B)
gentamicin	reversed their hypermotility phenotype to normal	induced full-length C7 production in both EB5K and DG16 keratinocytes	induced sustained C7 production	induced full-length C7 production in a dose-dependent manner in both EB5K and DG16 lines	induced PTC read-through and full-length C7 production	demonstrated C7 staining	
CN[C@@H]1[C@@H](O)[C@@H](O[C@@H]2[C@@H](O)[C@H](O[C@H]3O[C@H]([C@@H](C)O)[C@@H](O)[C@H](O)[C@H]3N)[C@@H](N)C[C@H]2N)OC[C@]1(C)O [G418]	reversed their hypermotility phenotype to normal	induced full-length C7 production in both EB5K and DG16 keratinocytes	induced sustained C7 production	induced full-length C7 production in a dose-dependent manner in both EB5K and DG16 lines	induced PTC read-through and full-length C7 production	demonstrated C7 staining	significantly higher levels of truncated and full-length C7 production
NCC[C@H](O)C(=O)N[C@@H]1C[C@H](N)[C@@H](O[C@H]2O[C@H](CN)[C@@H](O)[C@H](O)[C@H]2O)[C@H](O)[C@H]1O[C@H]1O[C@H](CO)[C@@H](O)[C@H](N)[C@H]1O [Amikacin, amikacin]		did not cause read-through in either keratinocyte line					
NC[C@@H]1O[C@H](O[C@H]2[C@@H](O)[C@H](O[C@@H]3[C@@H](O)[C@H](N)C[C@H](N)[C@H]3O[C@H]3O[C@H](CO)[C@@H](O)[C@H](O)[C@H]3N)O[C@@H]2CO)[C@H](N)[C@@H](O)[C@@H]1O [Paromomycin, paromomycin]		induced read-through in DG16 cells only					
O=C(O)c1cccc(-c2noc(-c3ccccc3F)n2)c1 [PTC124, PTC 124]		did not cause read-through in either keratinocyte line					
